The test system of data set [1] is human hepatocytes. Kind of data set: Absorption of beta-carotene in THF in human hepatocytes. It counts as in vitro ADME. Conditions: 10 μM beta-carotene, 0.05% THF, 24 hours incubation; three samples. As to the method: The following experiment was performed three times to determine the absorption of beta-carotene in THF in human hepatocytes.
Beta-carotene was dissolved in a solution containing 99.9% (w/w) tetrahydrofuran (THF) with 0.025% (w/w) butylated hydroxytoluene (BHT) to obtain a 2000× (20 mM) stock solution. While the incubation media was rapidly stirred, the stock solution was added to create a final 1× dosing solution containing 10 μM beta-carotene and 0.05% THF.
Hepatocytes were isolated and cryopreserved according to the methods described in Li, A. P., et al., Isolation and culturing of hepatocytes from human liver, J. Tiss. Culture Methods, 14:139-146(1992); Li rat and human hepatocytes as multicellular spheroids, In Vitro Cell. Dev. Biol., 28A:673-677 (1992); and Loretz, L. J. et al., Promutagen activation by freshly isolated and cryopreserved rat hepatocytes, Environ. Mol. Mutag., 12(3):335-341. Portions of liver tissue were processed into hepatocytes by collagenase-based digestion of connective tissue, followed by manual and mechanical separation and washing with media. Isolated hepatocytes were counted to determine yield, and viability was measured using Trypan Blue™ exclusion. The viability of the cells was 90%. The cells were resuspended in the plating media described above at a density of 0.7×10^6 cells/mL. […]

Data set [2] deals with human melanoma cell cultures. Kind of data set: Guanosine then beta-carotene treatment of melanoma cell cultures, Example 10. It counts as cell-based. Conditions: 7 days. How it is done:
Guanosine was added to McCoy's 5A modified medium at a concentration of 3 mg/ml. This supplemented medium was added to Leighton tubes after removal of an non-supplemented medium and was replaced every 2 days for 7 days. Beta-carotene in THF was added to McCoy's 5A modified medium at a concentration of 33 mg/ml with a final concentration of 0.5% THF. This supplemented medium was added to the Leighton tubes after removal of guanosine supplemented medium and was replaced every 2 days for an additional 7 day experimental period. At the end of 14 days, the cultures were fixed in methanol and the cover slips were Giemsa stained.

Data set [3] relates to human melanoma cell cultures. Kind of data set: Beta-carotene treatment of melanoma cell cultures, Example 9. It counts as cell-based. Particulars: beta-carotene 33 mg/ml in medium, 0.5% THF, 7 days. How it is done: Experiment: Beta-carotene in tetrahydrofuran (THF) was added to McCoy's 5A modified medium at a concentration of 33 mg/ml with a final concentration of 0.5% THF. This supplemented medium was added to Leighton tubes (containing melanoma cells) after removal of un-supplemented medium and was replaced every 2 days during the 7 day experimental period. At the end of 7 days, the cultures were fixed in methanol and the cover slips were Giemsa stained.

The nature of data set [4]: Maximum concentration of beta-carotene dissolving in THF. It counts as physicochemical. How it is done:
The formulation broadly comprises from about 0.1 to about 9.3 mg and preferably from about 1 to about 6 mg of beta-carotene per ml of tetrahydrofuran. The maximum concentration of beta-carotene capable of dissolving in THF is 9.3 mg/ml. Solubility problems arise above this concentration of beta-carotene. Beta-carotene and derivatives thereof for use in the present invention is commercially available from Sigma Chemical Co. or Fisher Scientific Co.

The test system of data set [5] is intra-abdominal sepsis in a rat model. Conditions: dietary supplementation; beta-carotene 90 mg/kg; cited from earlier work.
Data set [6] is described as follows: Soluabilization in THF, Example 12. It counts as physicochemical. Conditions: results approximate. As to the method:
All materials and sources were the same as in Example 11.The only additions were the use of 4.3 ml glass shell vials from Electron Microscopy Sciences, 10 ml glass centrifuge tubes from Fisher, and a 1.25 ml glass Hamilton syringe from Fisher.
All of a retinoic acid (1 gram) ampule was poured into a 10 ml glass centrifuge tube and stoppered with a silicon stopper. 7 ml of THF was added to the tube and then shaken by hand. This was performed twice.
All of a 1 gram ampule was poured into a 4.3 ml shell vial and stoppered with a silicon stopper. Using a 1.25 ml Hamilton syringe, 1.0 ml of THF was added to the vial and then shaken by hand. It soluabilized completely.
10 microliters THF from a Hamilton syringe was added to a ampule containing 1 mg of 9-cis retinoic acid. It appeared that complete soluability was achieved.
A 500 mg ampule of retinal was emptied into a 2 ml shell vial, and was completely soluabilized with hand shaking in 0.5 ml of THF.

A short description of data set [7]: Soluabilization in THF, Example 11. In kind it is physicochemical. Conditions: hand shaking, results approximate. How it is done:
All experimental substances (retinol, retinoic acid, 9-cis retinoic acid, retinal) were from Sigma (St. Louis, Mo.). All experimental substances were provided in sealed ampules.
The solvent, Tetrahydrofuran (stabilized with BHT) was also from Sigma.^1
^1 In the soluabilization experiments described in Examples 11 and 12 a small amount of yellow material appeared on the bottom of the stopper. In addition, since THF is somewhat volatile, the results are approximate.
2 ml shell vials from Electron Microscopy Sciences (Fort Washington, Pa.) Hamilton glass syringes (100 microliter, 250 microliter, 500 microliter) were from Fisher Scientific (Pittsburgh, Pa.). Silicone stoppers and other glassware were also from Fisher Scientific.
All of a retinoic acid ampule (100 mg ) was poured into a 2 ml shell vial and stoppered with a silicon stopper. Using a 500 microliter Hamilton syringe, 500 microliters of THF was added to the vial and then shaken by hand.
a. 25 mg ampule of retinol was poured into a 2 ml shell vial and it soluabilized completely in 250 microliters of THF.
b. 100 mg ampule of retinol was poured into a vial and it soluabilized completely in 0.5 ml of THF.
c. 100 mg ampule of retinol was poured into a vial and it soluabilized completely in 0.1 ml THF.
20 microliters THF from a Hamilton syringe was added to an ampule containing 1 mg of 9-cis retinoic acid. It appeared that complete soluability was achieved.
A 100 mg ampule of retinal was emptied into a 2 ml shell vial, and was completely soluabilized with hand shaking in 100 microliters of THF.

Data set [8] relates to right calf of a health professional. Conditions: in vivo. The text has this: Retinol, retinal, and retinoic acid, were each soluabilized in THF as described above and used as follows. A fingertip amount of each (e.g. retinoic acid, retinol retinal?) was rubbed into the right calf of a health professional.
Data set [9] deals with human with male pattern baldness. Kind of data set: Topical use in human male pattern baldness. It counts as in vivo. Particulars: in THF, applied daily to thinning vertex; within 4 months. From the text:
A human with male pattern baldness applies retinol in THF daily to their thinning vertex.

The mark [10] stands for this setting: beta-carotene 33 mg/ml, 0.5% THF, after 7 days of guanosine 3 mg/ml.

For the compound `CC1=C(/C=C/C(C)=C/C=C/C(C)=C/C=C/C=C(C)/C=C/C=C(C)/C=C/C2=C(C)CCCC2(C)C)C(C)(C)CCC1` [beta-carotene], the “detection of beta-carotene in the cells (dark regions, light microscope)” value in data set [1] was “presence of beta-carotene in the cells”. Also, in data set [2] (setting [10]), the “cell death in culture” value was “did not cause the extensive cell death” and the “morphology of the surviving cells” value was “most of those had a neuronal morphology”. In addition, the “cell death in culture compared with control cultures” value in [3] is “a large segment of the starting population died”. For the same compound, in [3] (Giemsa stained), the “morphology of the remaining cells” value is “most had triangular morphology and a large nucleus, consistent with neural cells, or were fusiform in shape”. In addition, the “maximum concentration of beta-carotene capable of dissolving in THF” value in data set [4] is 9.3 mg/mL. The “protective effect on intra-abdominal sepsis” value in [5] is “lesser effect”.

For `CC1=C(/C=C/C(C)=C\C=C\C(C)=C\C(=O)O)C(C)(C)CCC1` [9-cis retinoic acid], the “soluability in THF” value is given as “about 100 mg/ml THF” in data set [6] and “at least 50 mg/ml THF” in data set [7].

Take `Nc1nc2c(ncn2[C@@H]2O[C@H](CO)[C@@H](O)[C@H]2O)c(=O)[nH]1` [guanosine, Guanosine]: the “phenotypic changes in the overall cell population” value in [2] (guanosine 3 mg/ml in medium) is listed as “many cells with an increased nuclear to cytoplasmic ratio”.

Take Vitamin A: the “protective effect on intra-abdominal sepsis” value in data set [5] is listed as “significant protective effect”.

As for `CC1=C(/C=C/C(C)=C/C=C/C(C)=C/CO)C(C)(C)CCC1` [retinol], the “soluability in THF” value in data set [6] and in data set [7] was “about 1 gm/ml THF” each time. Besides, the “signs of toxicity, topically or systemically” value (“signs of toxicity” below) in [8] is given as “no signs of toxicity”. In addition, the “new hair growth (hair counts, investigator and patient assessment)” value in [9] is “significant new hair growth”.

On to `CC1=C(/C=C/C(C)=C/C=C/C(C)=C/C=O)C(C)(C)CCC1` [retinal], for which the “soluability in THF” value in data set [6] and in data set [7] was “about 1 gm/ml THF” each time. In addition, the “signs of toxicity” value in data set [8] is on record as “no signs of toxicity”.

In the case of `CC1=C(/C=C/C(C)=C/C=C/C(C)=C/C(=O)O)C(C)(C)CCC1` [retinoic acid], the “signs of toxicity” value in data set [8] was “no signs of toxicity”.

These data come from patent publication US6878747B2, “Systemic formulations containing beta-carotene and derivatives thereof” (priority 2001, dated 2005).
